The values that follow come from patent US6310093A (priority 1998, dated 2001).

Substitutions are numbered along the chain they refer to. Where “and” joins values, the source holds several entries; their conditions need not be identical. Equal values may be shown once. Entries after “also recorded” stand apart in the source; their conditions may differ. Non-standard residues stand in square brackets, D forms with d. Residues, ends and D or L forms follow the SMILES beside them.

The subject of series [1] is neuronal cells in culture.
Series [2] relates to glutaminase. Conditions: cited from earlier work.
Series [3] has as its target T1, glutaminase in damaged neurons (Mus musculus, UniProt D3Z7P3).
T1 sequence (D3Z7P3 73-674 limits assumed): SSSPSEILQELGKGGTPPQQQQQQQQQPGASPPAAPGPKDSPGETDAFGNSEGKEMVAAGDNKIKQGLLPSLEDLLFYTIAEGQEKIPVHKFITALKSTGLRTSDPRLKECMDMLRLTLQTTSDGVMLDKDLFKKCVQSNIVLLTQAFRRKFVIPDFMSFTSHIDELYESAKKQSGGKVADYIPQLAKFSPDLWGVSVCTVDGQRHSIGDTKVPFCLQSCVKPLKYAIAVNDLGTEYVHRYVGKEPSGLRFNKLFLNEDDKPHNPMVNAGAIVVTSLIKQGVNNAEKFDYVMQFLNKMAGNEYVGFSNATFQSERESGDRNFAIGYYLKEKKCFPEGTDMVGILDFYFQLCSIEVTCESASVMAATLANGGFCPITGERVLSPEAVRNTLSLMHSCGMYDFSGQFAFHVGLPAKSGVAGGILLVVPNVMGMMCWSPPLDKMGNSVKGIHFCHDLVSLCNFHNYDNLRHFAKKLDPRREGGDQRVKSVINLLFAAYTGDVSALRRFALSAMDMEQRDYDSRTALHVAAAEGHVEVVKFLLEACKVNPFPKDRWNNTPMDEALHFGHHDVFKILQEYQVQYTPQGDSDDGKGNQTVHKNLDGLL

Series [4] has as its system ischemic penumbra (dialysate glutamate). As to the kind of experiment: In vivo microdialysis of ischemic penumbra after MCAO. Details: species or system rat. Conditions: subsequent perfusion of phosphate; ±400%. How it is done:
In further microdialysis experiments, exogenous glutamine was added to the ischemic penumbra via the probe, and dialysis glutamate was measured, as described in Example 7. When 10 mM glutamine plus 20 mM sodium phosphate were perfused into the penumbra for one hour, dialysate glutamate was elevated 315% as compared to control (±115%). […] The effects on glutamate were much more pronounced than on other amino acids measured; therefore, these studies provided further support for the involvement of extracellular glutaminase activity in producing the elevated levels of glutamate in cortical tissue undergoing ischemic damage.
The middle cerebral arteries of rats were occluded as in EXAMPLE 7, and the rats were returned to their cages overnight. The next morning, dialysis probes ([…], 2 mm length, 20,000 dalton cutoff) were inserted into ischemic penumbra (cortex) and perfused with artificial CSF at 3 μl/min for 1 h prior to collection of 10 minute fractions of dialysate. The effectiveness of the occlusion and the placement of probes were verified by TTC staining of 1 mm sections at the conclusion of the experiment. Amino acids in the dialysate were measured by reverse phase HPLC with fluorescence detection, after derivatization of the dialysates with o-phthaldialdehyde and N-acetyl-L-cysteine […]

Series [5] concerns the target T2, glutaminase in live (intact) neurons (Mus musculus, UniProt D3Z7P3).
T2 sequence (D3Z7P3 55-674): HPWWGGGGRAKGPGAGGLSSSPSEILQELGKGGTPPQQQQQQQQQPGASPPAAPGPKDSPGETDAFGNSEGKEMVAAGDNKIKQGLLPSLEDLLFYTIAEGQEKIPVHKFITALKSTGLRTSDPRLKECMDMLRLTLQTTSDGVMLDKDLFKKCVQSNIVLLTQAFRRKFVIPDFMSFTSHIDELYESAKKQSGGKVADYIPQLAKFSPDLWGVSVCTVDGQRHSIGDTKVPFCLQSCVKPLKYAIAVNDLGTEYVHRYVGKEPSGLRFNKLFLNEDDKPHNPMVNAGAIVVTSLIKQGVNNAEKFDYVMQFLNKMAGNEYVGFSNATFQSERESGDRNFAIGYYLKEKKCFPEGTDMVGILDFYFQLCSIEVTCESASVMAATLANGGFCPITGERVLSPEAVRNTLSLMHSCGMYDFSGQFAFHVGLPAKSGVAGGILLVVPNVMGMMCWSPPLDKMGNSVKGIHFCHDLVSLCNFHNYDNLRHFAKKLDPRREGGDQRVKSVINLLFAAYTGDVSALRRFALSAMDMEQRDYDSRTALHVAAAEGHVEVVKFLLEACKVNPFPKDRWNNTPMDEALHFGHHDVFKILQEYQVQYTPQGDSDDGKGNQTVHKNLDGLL
The series is classed as cell-based, mouse (Swiss Webster).

The test system of series [6] is mixed neuronal-astrocyte cultures.
Series [7] relates to pure neuronal cultures (cortical neurons) exposed to glutamine.
In series [8] the test system is hippocampal slices (field potential). Conditions: 120 μM, 60 min perfusion.
Series [9] concerns glial cultures (astrocytes). The series is classed as cell-based, mouse (Swiss Webster). Conditions: at much higher concentrations than inhibition of exposed glutaminase.
The conditions of series [10]: Huber; cited from earlier work.
Series [11] addresses T3, glutaminase (brain membranes) (Rattus norvegicus, UniProt P13264).
T3 construct: Membranes are prepared by homogenization of brain tissue in 330 mM sucrose; from tissue; host or cells: rat brain, crude membranes (17000 G pellet)
T3 sequence (P13264 73-674 limits assumed): T1 sequence (D3Z7P3 73-674 limits assumed) with I64V, G590E
As to the kind of experiment: biochemical. Conditions: for Glutaminase Activity: brain membranes. Also on record: Glutaminase Activity: unit not given here.

[12] abbreviates: 7 h hypoxia, 2 mM Gln + 30 uM pCMPS.

Take `N[C@@H](CC(=O)CCl)C(=O)O` [Chloroketone, L-2-amino-4-oxo-5-chloropentanoic acid]: in [1], the “LDH release from neuronal cells (in words)” value is “resulted in release of lactate dehydrogenase from the cells, indicating cellular toxicity and death”. Further, the “glutaminase inhibition (literature, in words)” value in series [2] was “only weak (mM) inhibitors”.

As for `O=P(O)(O)O` [phosphate, sodium phosphate], the “increase of glutamate generation” value in [3] (mixed neuronal-glial cultures, 20000 µM) is on record as 8 fold. In series [4], the “dialysate glutamate, % of control” value is 845 % of control.

Regarding `NNC(=O)CCC(N)C(=O)O` (centres unmarked) [glutamate-γ-hydrazide], the “effect on glutamine hydrolysis by damaged neurons (in words)” value in [3] is reported as “no effect on glutamine hydrolysis”.

Regarding `O=S(=O)(O)c1cc[c]([Hg][Cl])cc1` [pCMPS, p-(chloromercuri)phenyl sulfonic acid], in series [5], the “effect on glutaminase activity of intact/live neurons (in words)” value is “lack of effect”. For the same compound, the “concentration required to inhibit glutaminase” value in series [3] was in the range of 10 to 30 µM. In addition, the “inhibition of glutamine hydrolysis by NMDA-damaged neurons (in words)” value in series [3] (30 μM) is listed as “almost completely inhibited”. Further, the “glutamate generation by NMDA-damaged neurons (in words)” value in [3] (600 μM) was “completely abolished glutamate generation”. Moreover, the “LDH release from control cultures (in words)” value in series [1] (30 μM) was “did not cause LDH release from control cultures”. For the same compound, the “effect on medium glutamate and release of LDH in hypoxic mixed cultures (in words)” value in series [6] (30 μM pCMPS, 2 mM glutamine, hypoxia 7h) is “lowered medium glutamate and release of LDH”. Also, in series [6] (setting [12]), the medium glutamate came out at 1.45 ± 1.0 μM Glu and the “neuronal LDH release” value came out at 38.5 ± 8.1%. Further, in series [7], the “LDH release caused by glutamine exposure (in words)” value is listed as “prevented the release of LDH”, the medium glutamate was 10.3 ± 4 μM Glu, the “neuronal morphology (in words)” value is on record as “neurons retained their normal appearance after 24 h” and the “neuroprotection (in words)” value is on record as “protected pure neuronal cultures from neuronal damage caused by exposure to glutamine”. Moreover, the “neuronal LDH release” value in series [7] (mouse, pure neuronal cultures, 24 h, 30 µM) was found to be 17 ± 10.5. Further, in series [8], the “effect on hippocampal field potential (in words)” value is “no effect on the field potential”. For the same compound, in series [9], the “glial uptake of glutamate (in words)” value is on record as “blocks glial uptake of glutamate”.

For `[N-]=[N+]=CC(=O)OC[C@H](N)C(=O)O` [azaserine], in series [2], the “glutaminase inhibition (literature, in words)” value is given as “do not inhibit glutaminase”.

For `N[C@H](C(=O)O)[C@@H]1CC(Cl)=NO1` [acivicin], the “effect on glutamine hydrolysis by damaged neurons (in words)” value in [3] is on record as “no effect on glutamine hydrolysis”. In addition, the “glutaminase inhibition (literature, in words)” value in series [2] is “do not inhibit glutaminase”. For the same compound, the “crossing of cell membranes (in words)” value in series [10] was “readily cross cell membranes”.

In the case of `C=C(CC(N)C(=O)O)C(=O)O` (racemic) [γ-methylene-DL-glutamate], in series [11] (read-out: Glutaminase Activity), the activity at 3300 µM amounted to 105 ± 10%.

Regarding `O=C(O)CC[C@H](NC(=O)OCc1ccccc1)C(=O)O` [carbobenzoxy-Glu--OH], the “glutaminase inhibition (in words)” value in series [11] is recorded as “moderate inhibition”. Besides, in series [11] (read-out: Glutaminase Activity), the activity at 3300 µM amounted to 65% and the activity at 9000 µM came out at 56%.

In the case of `CCCCCCCC([N+](=O)[O-])[N+](=O)[O-]` [1,1-dinitrooctane], the “neuroprotection (in words)” value in series [7] is reported as “neuroprotective in cultures of pure (intact) neurons”. Moreover, in series [7] (pure neuronal cultures), the “lowering of LDH level” value is on record as 30-40% and the “lowering of glutamate level” value was 30-40%. Further, the “dependence of glutaminase inhibition on phosphate level and concentration (in words)” value in series [11] is reported as “inhibition was reduced in the presence of high phosphate levels; the effect was particularly evident; also recorded: A biphasic effect”. The “Glutaminase Activity” value in [11] (30 µM) turned out to be 96 ± 3. Besides, the “Glutaminase Activity” value in [11] (100 µM) turned out to be 96 ± 4. The “Glutaminase Activity” value in series [11] (300 µM) was 51 ± 4 and 88 ± 17. The “Glutaminase Activity” value in series [11] (3000 µM) is 64 ± 43. Moreover, in [11] (read-out: Glutaminase Activity), the activity at 30 µM was 89 ± 6%, the activity at 100 µM turned out to be 77 ± 11% and the activity at 3000 µM was found to be 79 ± 27%.

Take `NCC(=O)NCC(=O)N[C@@H](CCC(=O)O)C(=O)O` [Gly--Gly--Glu] (H-Gly-Gly-Glu-OH): in [11] (read-out: Glutaminase Activity), the activity at 3300 µM was 101% and the activity at 9000 µM was determined as 87%.

For the compound `NCC(=O)NC(CC(F)C(=O)O)C(=O)O` (centres unmarked) [glycyl-4-fluoroglutamate, Glycyl-4-fluoroglutamate], in series [11] (read-out: Glutaminase Activity), the activity at 330 µM turned out to be 94%, the activity at 900 µM was found to be 80%, the activity at 3300 µM turned out to be 55% and the activity at 9000 µM is 30%.

Consider `NCC(=O)N[C@H](CCC(=O)O)C(=O)O` [Gly-D-Glu] (H-Gly-[dE]-OH), for which, in series [11] (read-out: Glutaminase Activity), the activity at 3300 µM turned out to be 109% and the activity at 9000 µM was found to be 90%.

As to `O=C(O)CCCC(=O)O` [glutaric acid], in series [11] (read-out: Glutaminase Activity), the activity at 3300 µM turned out to be 89% and the activity at 9000 µM came out at 75%.

Take `CNC(CCC(=O)O)C(=O)O` (racemic) [N-methyl-DL-glutamate]: in series [11] (read-out: Glutaminase Activity), the activity at 3300 µM was 102% and the activity at 9000 µM amounted to 124%.

On to `CC(C)[C@H](N)C(=O)N[C@@H](CCC(=O)O)C(=O)O` [Val--Glu] (H-Val-Glu-OH), for which, in [11] (read-out: Glutaminase Activity), the activity at 3300 µM came out at 114% and the activity at 9000 µM is 99%.
